Laboratory results reported in patent US12152083B2 (priority 2014, dated 2024).

Columns and labels:
Jurkat cells = test: Cell cycle arrest assay; format: cell-based; conditions: 50 nM, 24 h, propidium iodide
Protocol: Jurkat cells (ATCC), cultured in RMPI-1640 media supplemented with 10% FBS, were obtained in logarithmic growth. 1 million cells/ml were seeded into a 12-well tissue-culture treated plate in a 950 μL volume. Cells were treated with Compound 5 in 50 μL of growth media such that the final concentration of Compound 5 was 50 nM, control cells were given 50 μL of growth media alone. Cells were incubated for 24 h at 37° C., 5% CO2 in a humidified incubator. Following incubation, cells were thoroughly resuspended and transferred to 5 mL FACS tubes, and stored on ice. Two washes were performed by spinning cells down in a swinging-bucket centrifuge at 450×g for 4 min, resuspending in 1 mL ice-cold PBS. Cells were fixed through the addition of 3 mL ice-cold 100% ethanol in a dropwise fashion under vortex, and immediately stored at 4° C. for 1 h. During the 1 h incubation, the following staining solution was prepared in ice-cold PBS: 10 μg/ml propidium iodide, 10 U/ml RNAse 1f, and 0.05% Triton X-100. Following the 1 h fixation incubation, ethanol was removed by spinning cells as described above, and washing twice in 1 mL ice-cold PBS. Cells were resuspended in 500 μL of the above-mentioned staining solution, and incubated at room temperature for 1 h. […] Histograms were generated using FCS Express, plotting # of events against fluorescence in FL-3.

[1] = test system: Human T-cell leukemia cell line Jurkat; test: Cellular cytotoxicity of compounds, Example 3.1 (CellTiter-Glo); format: cell-based; conditions: three nights
Protocol: (§1) Compounds were tested on one or more of Human T-cell leukemia cell line Jurkat (ATCC: TIB-152); Human breast cancer cell lines HCC1954 (ATCC: CRL-2338) and JIMT-1 (DSMZ: ACC 589); Human Pancreatic cell line BxPC-3 (ATCC: CRL.1687), Human ovarian adenocarcinoma cell line SK-OV-3 (ATCC: HTB-77) and Human gastric carcinoma cell line NCI-N87 (ATCC: CRL. 5822); to assess their cytotoxicity.
(§2) Briefly, cells were obtained from commercial sources and cultured as described in the product sheet provided. Cells were removed from their culture vessels and the resulting cell suspension was counted using a ViCell (Beckman Coulter), then seeded at 25,000 cells/mL (2,500 cells/well) in Costar 3904 black walled, flat bottomed 96-well plates (cells were seeded in the inner 60 wells of 96-well TC plates, and outer edge wells filled with water). Adherent cell lines were incubated for one night at 37° C./5% CO2 atmosphere to allow the cells to attach to the microtiter plate surface, while suspension (Jurkat) cells were plated immediately before use. Cytotoxins were dissolved and serially diluted in dimethyl sulfoxide and then the solutions were added to complete growth medium at five-times the desired maximum final concentration. The cytotoxins were then titrated in growth medium, normally 1:3, over eight steps. A control with no test article present (growth medium alone) was included on each microtiter plate in sextuplicate. The prepared toxin titrations were added (25 μL/well) in triplicate to each cell line assayed. […] After the incubation, cell viability was measured using CellTiter-Glo® by adding 30 μL of prepared CellTiter-Glo® reagent to each assay well. The mixtures were incubated for at least twenty minutes in the dark prior to measuring emitted luminescence using a microplate luminometer (500 ms integration time). The collected relative luminescence units (RLU) were converted to % cytotoxicity using the growth medium alone control mentioned above (% Cytotoxicity=1−[well RLU/average medium alone control RLU]×[…]).

[2] = test system: Human gastric carcinoma cell line NCI-N87; test: as above; format: cell-based; conditions: five nights
Protocol: as §1, §2

[3] = test system: Human Pancreatic cell line BxPC-3; test: as above; format: cell-based; conditions: five nights
Protocol: as §1, §2

Jurkat cell line = test: Cytotoxicity of compounds, Example 3 (CellTiter-Glo, 3 days); format: cell-based, Human; conditions: titrated 1:3 starting with 30 nM
Protocol: Compounds were tested on Jurkat and HCC1954 cell lines to assess their cytotoxicity. Compounds were titrated 1:3 starting at various concentrations (30 nM to 1000 nM). Control cytotoxin HTI-286 (see, e.g., U.S. Pat. No. 7,579,323) was also titrated 1:3 across starting with a 30 nM concentration. Plates were incubated for 3 days. Cell viability was quantified using 30 μL/well of 1× CellTiter-Glo reagent.
Each cell line was grown in its respective growth medium until seeding day. Cells were removed from their culture vessels and the resulting cell suspension was counted using the ViCell. Cells were then diluted in their growth medium to 25000/mL such that 100 μL/well=2500 cells/well. Each cell line was seeded in the inner 60 wells of 96-well black walled TC plates, outer wells filled with water. HCC1954 were seeded a day prior to assay set up. Cytotoxins were diluted as described below a 5× dose-response of each compound was prepared using RPMI+10% FBS in a deep-well 96-well plate. This “master” dilution plate was used for each cell line. 25 μL of the 5× dose responses was spiked into each cell line in triplicate. The plates were returned to the incubator and were incubated for 3 nights. After the 3 nights, cell viability was quantified using 30 μL/well of 1× CellTiter-glo reagent. After at least 10 minutes of incubation, the luminescence was measured using the SpectraMax (500 ms integration).

[4] = test system: Jurkat, HCC1954, NCI-N87, BxPC-3, SK-OV-3, and JIMT-1 Cell Lines; test: Cellular cytotoxicity, Example 3.1, control cytotoxin on all cell lines; format: cell-based, Human; conditions: Example 3.1 cell lines
Protocol: as §1
Briefly, cells were obtained from commercial sources and cultured as described in the product sheet provided. Cells were removed from their culture vessels and the resulting cell suspension was counted using a ViCell (Beckman Coulter), then seeded at 25,000 cells/mL (2,500 cells/well) in Costar 3904 black walled, flat bottomed 96-well plates (cells were seeded in the inner 60 wells of 96-well TC plates, and outer edge wells filled with water). […] After the incubation, cell viability was measured using CellTiter-Glo® by adding 30 μL of prepared CellTiter-Glo® reagent to each assay well. The mixtures were incubated for at least twenty minutes in the dark prior to measuring emitted luminescence using a microplate luminometer (500 ms integration time). The collected relative luminescence units (RLU) were converted to % cytotoxicity using the growth medium alone control mentioned above (% Cytotoxicity=1−[well RLU/average medium alone control RLU]×[…]).

## CC[C@H](C)[C@@H]([C@@H](CC(=O)N1CCC[C@H]1[C@H](OC)[C@@H](C)C(=O)NS(=O)(=O)c1ccc(N)cc1)OC)N(C)C(=O)[C@@H](NC(=O)[C@H](C(C)C)N(C)C)C(C)C [Compound 5, (S)—N-((3R,4S,5S)-1-((S)-2-((1R,2R)-3-(4-Aminophenylsulfonamido)-1-methoxy-2-methyl-3-oxopropyl)pyrrolidin-1-yl)-3-methoxy-5-methyl-1-oxoheptan-4-yl)-2-((S)-2-(dimethylamino)-3-methylbutanamido)-N,3-dimethylbutanamide]
Jurkat cells
  DNA content histograms, cell cycle phase: pronounced shift towards G2/M phase of the cell cycle

## CC[C@H](C)[C@@H]([C@@H](CC(=O)N1CCC[C@H]1[C@H](OC)[C@@H](C)C(=O)NS(=O)(=O)c1ccc(NC(=O)C(F)(F)F)cc1)OC)N(C)C(=O)[C@@H](NC(=O)[C@@H](NC)C(C)(C)c1ccccc1)C(C)C [Compound 18]
[1]
  EC50: 1.5 nM
[2]
  EC50: 0.9 nM
[3]
  EC50: 2.3 nM

## CN[C@H](C(=O)N[C@H](C(=O)N(C)[C@H](/C=C(\C)C(=O)O)C(C)C)C(C)(C)C)C(C)(C)c1ccccc1 [HTI-286]
Jurkat cell line
  killing of Jurkats by control cytotoxin: successfully killed Jurkats at an expected concentration
[4]
  killing of all cell lines by control cytotoxin: successfully killed all cell lines at an expected concentration
